Experimental data published in ChEMBL document CHEMBL3867479, “Multiple biological activities and molecular docking studies of newly synthesized 3-(pyridin-4-yl)-1H-pyrazole-5-carboxamide chalcone hybrids” (Bioorg Med Chem Lett, 2016).
Calls of active or inactive are those of the source. No cut-off for these calls is given here.

Tested on: Pseudomonas aeruginosa
Experiment: Antibacterial activity against Pseudomonas aeruginosa ATCC 10145 after 24 hrs by well diffusion method
Type: functional

SMILES	inhibition zone (IZ) [mm]
O=C(/C=C/c1ccccc1)c1cccc(NC(=O)c2cc(-c3ccncc3)n[nH]2)c1	9.5
COc1cc(/C=C/C(=O)c2cccc(NC(=O)c3cc(-c4ccncc4)n[nH]3)c2)cc(OC)c1OC	5.2
O=C(/C=C/c1cccs1)c1cccc(NC(=O)c2cc(-c3ccncc3)n[nH]2)c1	8.6
O=C(/C=C/c1ccc(Cl)cc1Cl)c1cccc(NC(=O)c2cc(-c3ccncc3)n[nH]2)c1	12.2
NC(=O)c1cc(-c2ccncc2)n[nH]1	4
O=C(/C=C/c1ccc(F)cc1)c1cccc(NC(=O)c2cc(-c3ccncc3)n[nH]2)c1	12.1
O=C(/C=C/c1ccccc1)c1ccccc1 [CHALCONE]	7
O=C(/C=C/c1cccc2ccccc12)c1cccc(NC(=O)c2cc(-c3ccncc3)n[nH]2)c1	6.3
COc1ccccc1/C=C/C(=O)c1cccc(NC(=O)c2cc(-c3ccncc3)n[nH]2)c1	8.8
COc1ccc(/C=C/C(=O)c2cccc(NC(=O)c3cc(-c4ccncc4)n[nH]3)c2)cc1	12.5
CN(C)c1ccc(/C=C/C(=O)c2cccc(NC(=O)c3cc(-c4ccncc4)n[nH]3)c2)cc1	10.5
O=C(/C=C/c1ccco1)c1cccc(NC(=O)c2cc(-c3ccncc3)n[nH]2)c1	5.7
CC(C)c1ccc(/C=C/C(=O)c2cccc(NC(=O)c3cc(-c4ccncc4)n[nH]3)c2)cc1	9.6
O=C(/C=C/c1ccc(Cl)cc1)c1cccc(NC(=O)c2cc(-c3ccncc3)n[nH]2)c1	10.2
Cc1ccc(/C=C/C(=O)c2cccc(NC(=O)c3cc(-c4ccncc4)n[nH]3)c2)cc1	7.8
O=C(/C=C/c1ccc([N+](=O)[O-])cc1)c1cccc(NC(=O)c2cc(-c3ccncc3)n[nH]2)c1	10.4
O=C(/C=C/c1ccccc1Cl)c1cccc(NC(=O)c2cc(-c3ccncc3)n[nH]2)c1	8.3

Tested on: not listed separately
Experiment: Antioxidant activity assessed as DPPH free radical scavenging activity at 100 uM by UV-Vis spectrophotometric analysis
Type: functional

SMILES	IC50 [µM]
O=C(/C=C/c1ccccc1)c1cccc(NC(=O)c2cc(-c3ccncc3)n[nH]2)c1	67.1
COc1cc(/C=C/C(=O)c2cccc(NC(=O)c3cc(-c4ccncc4)n[nH]3)c2)cc(OC)c1OC	54.5
NC(=O)c1cc(-c2ccncc2)n[nH]1	82.1
O=C(/C=C/c1ccc(F)cc1)c1cccc(NC(=O)c2cc(-c3ccncc3)n[nH]2)c1	56
O=C(/C=C/c1ccccc1)c1ccccc1 [CHALCONE]	70.9
O=C(/C=C/c1cccc2ccccc12)c1cccc(NC(=O)c2cc(-c3ccncc3)n[nH]2)c1	64.5
O=C(/C=C/c1ccc(Cl)cc1)c1cccc(NC(=O)c2cc(-c3ccncc3)n[nH]2)c1	63.9
Cc1ccc(/C=C/C(=O)c2cccc(NC(=O)c3cc(-c4ccncc4)n[nH]3)c2)cc1	69.4

Now those with a lower IC50, led by results:

IC50 [µM]	SMILES
52.8	O=C(/C=C/c1ccc([N+](=O)[O-])cc1)c1cccc(NC(=O)c2cc(-c3ccncc3)n[nH]2)c1
52.3	CC(C)c1ccc(/C=C/C(=O)c2cccc(NC(=O)c3cc(-c4ccncc4)n[nH]3)c2)cc1
41.9	CN(C)c1ccc(/C=C/C(=O)c2cccc(NC(=O)c3cc(-c4ccncc4)n[nH]3)c2)cc1
41.8	O=C(/C=C/c1ccco1)c1cccc(NC(=O)c2cc(-c3ccncc3)n[nH]2)c1
41.7	COc1ccccc1/C=C/C(=O)c1cccc(NC(=O)c2cc(-c3ccncc3)n[nH]2)c1
38.4	COc1ccc(/C=C/C(=O)c2cccc(NC(=O)c3cc(-c4ccncc4)n[nH]3)c2)cc1
35	O=C(/C=C/c1ccc(Cl)cc1Cl)c1cccc(NC(=O)c2cc(-c3ccncc3)n[nH]2)c1
27.7	O=C(/C=C/c1ccccc1Cl)c1cccc(NC(=O)c2cc(-c3ccncc3)n[nH]2)c1
27.6	O=C(/C=C/c1cccs1)c1cccc(NC(=O)c2cc(-c3ccncc3)n[nH]2)c1

Tested on: not listed separately
Experiment: Antioxidant activity assessed as anti-inflammatory activity by measuring decrease in bovine serum albumin denaturation at 10 to 500 uM
Type: functional

SMILES	Activity
COc1cc(/C=C/C(=O)c2cccc(NC(=O)c3cc(-c4ccncc4)n[nH]3)c2)cc(OC)c1OC	Active
O=C(/C=C/c1cccs1)c1cccc(NC(=O)c2cc(-c3ccncc3)n[nH]2)c1	Active
O=C(/C=C/c1ccc(Cl)cc1Cl)c1cccc(NC(=O)c2cc(-c3ccncc3)n[nH]2)c1	Active
O=C(/C=C/c1cccc2ccccc12)c1cccc(NC(=O)c2cc(-c3ccncc3)n[nH]2)c1	Active
CN(C)c1ccc(/C=C/C(=O)c2cccc(NC(=O)c3cc(-c4ccncc4)n[nH]3)c2)cc1	Active
O=C(/C=C/c1ccco1)c1cccc(NC(=O)c2cc(-c3ccncc3)n[nH]2)c1	Active
CC(C)c1ccc(/C=C/C(=O)c2cccc(NC(=O)c3cc(-c4ccncc4)n[nH]3)c2)cc1	Active
O=C(/C=C/c1ccc(Cl)cc1)c1cccc(NC(=O)c2cc(-c3ccncc3)n[nH]2)c1	Active
O=C(/C=C/c1ccccc1Cl)c1cccc(NC(=O)c2cc(-c3ccncc3)n[nH]2)c1	Active

Tested on: Klebsiella pneumoniae
Experiment: Antibacterial activity against Klebsiella pneumoniae ATCC 10031 after 24 hrs by well diffusion method
Type: functional

SMILES	inhibition zone (IZ) [mm]
O=C(/C=C/c1cccs1)c1cccc(NC(=O)c2cc(-c3ccncc3)n[nH]2)c1	7.5
O=C(/C=C/c1ccc(Cl)cc1Cl)c1cccc(NC(=O)c2cc(-c3ccncc3)n[nH]2)c1	6.8
NC(=O)c1cc(-c2ccncc2)n[nH]1	5
O=C(/C=C/c1ccccc1)c1ccccc1 [CHALCONE]	5
COc1ccc(/C=C/C(=O)c2cccc(NC(=O)c3cc(-c4ccncc4)n[nH]3)c2)cc1	5.2
CN(C)c1ccc(/C=C/C(=O)c2cccc(NC(=O)c3cc(-c4ccncc4)n[nH]3)c2)cc1	5.9
O=C(/C=C/c1ccco1)c1cccc(NC(=O)c2cc(-c3ccncc3)n[nH]2)c1	5.8

Tested on: not listed separately
Experiment: Antioxidant activity assessed as H2O2 free radical scavenging activity at 100 uM by UV-Vis spectrophotometric analysis
Type: functional

SMILES	IC50 [µM]
O=C(/C=C/c1ccccc1)c1cccc(NC(=O)c2cc(-c3ccncc3)n[nH]2)c1	71.5
COc1cc(/C=C/C(=O)c2cccc(NC(=O)c3cc(-c4ccncc4)n[nH]3)c2)cc(OC)c1OC	52.9
NC(=O)c1cc(-c2ccncc2)n[nH]1	89.1
O=C(/C=C/c1ccc(F)cc1)c1cccc(NC(=O)c2cc(-c3ccncc3)n[nH]2)c1	58.7
O=C(/C=C/c1ccccc1)c1ccccc1 [CHALCONE]	98.1
O=C(/C=C/c1cccc2ccccc12)c1cccc(NC(=O)c2cc(-c3ccncc3)n[nH]2)c1	72.1
O=C(/C=C/c1ccc(Cl)cc1)c1cccc(NC(=O)c2cc(-c3ccncc3)n[nH]2)c1	78.9
Cc1ccc(/C=C/C(=O)c2cccc(NC(=O)c3cc(-c4ccncc4)n[nH]3)c2)cc1	64.6

Next, values leading:

IC50 [µM]	SMILES
64.6	O=C(/C=C/c1ccc([N+](=O)[O-])cc1)c1cccc(NC(=O)c2cc(-c3ccncc3)n[nH]2)c1
60.2	CC(C)c1ccc(/C=C/C(=O)c2cccc(NC(=O)c3cc(-c4ccncc4)n[nH]3)c2)cc1
60.9	CN(C)c1ccc(/C=C/C(=O)c2cccc(NC(=O)c3cc(-c4ccncc4)n[nH]3)c2)cc1
72.3	O=C(/C=C/c1ccco1)c1cccc(NC(=O)c2cc(-c3ccncc3)n[nH]2)c1
56.7	COc1ccccc1/C=C/C(=O)c1cccc(NC(=O)c2cc(-c3ccncc3)n[nH]2)c1
54.6	COc1ccc(/C=C/C(=O)c2cccc(NC(=O)c3cc(-c4ccncc4)n[nH]3)c2)cc1
80.9	O=C(/C=C/c1ccc(Cl)cc1Cl)c1cccc(NC(=O)c2cc(-c3ccncc3)n[nH]2)c1
79.8	O=C(/C=C/c1ccccc1Cl)c1cccc(NC(=O)c2cc(-c3ccncc3)n[nH]2)c1
70	O=C(/C=C/c1cccs1)c1cccc(NC(=O)c2cc(-c3ccncc3)n[nH]2)c1

Tested on: Staphylococcus aureus
Experiment: Antibacterial activity against Staphylococcus aureus ATCC 11632 after 24 hrs by well diffusion method
Type: functional

SMILES	inhibition zone (IZ) [mm]
O=C(/C=C/c1ccccc1)c1cccc(NC(=O)c2cc(-c3ccncc3)n[nH]2)c1	7.5
COc1cc(/C=C/C(=O)c2cccc(NC(=O)c3cc(-c4ccncc4)n[nH]3)c2)cc(OC)c1OC	12.6
O=C(/C=C/c1cccs1)c1cccc(NC(=O)c2cc(-c3ccncc3)n[nH]2)c1	15.4
O=C(/C=C/c1ccc(Cl)cc1Cl)c1cccc(NC(=O)c2cc(-c3ccncc3)n[nH]2)c1	17.5
NC(=O)c1cc(-c2ccncc2)n[nH]1	5
O=C(/C=C/c1ccc(F)cc1)c1cccc(NC(=O)c2cc(-c3ccncc3)n[nH]2)c1	5.4
O=C(/C=C/c1ccccc1)c1ccccc1 [CHALCONE]	6
O=C(/C=C/c1cccc2ccccc12)c1cccc(NC(=O)c2cc(-c3ccncc3)n[nH]2)c1	12.3
COc1ccccc1/C=C/C(=O)c1cccc(NC(=O)c2cc(-c3ccncc3)n[nH]2)c1	6.8
COc1ccc(/C=C/C(=O)c2cccc(NC(=O)c3cc(-c4ccncc4)n[nH]3)c2)cc1	4.5
CN(C)c1ccc(/C=C/C(=O)c2cccc(NC(=O)c3cc(-c4ccncc4)n[nH]3)c2)cc1	7.8
O=C(/C=C/c1ccco1)c1cccc(NC(=O)c2cc(-c3ccncc3)n[nH]2)c1	10.7
CC(C)c1ccc(/C=C/C(=O)c2cccc(NC(=O)c3cc(-c4ccncc4)n[nH]3)c2)cc1	6.8
O=C(/C=C/c1ccc(Cl)cc1)c1cccc(NC(=O)c2cc(-c3ccncc3)n[nH]2)c1	12.3
Cc1ccc(/C=C/C(=O)c2cccc(NC(=O)c3cc(-c4ccncc4)n[nH]3)c2)cc1	5.9
O=C(/C=C/c1ccc([N+](=O)[O-])cc1)c1cccc(NC(=O)c2cc(-c3ccncc3)n[nH]2)c1	20.2

Tested on: Streptococcus pyogenes
Experiment: Antibacterial activity against Streptococcus pyogenes ATCC 12358 after 24 hrs by well diffusion method
Type: functional

SMILES	inhibition zone (IZ) [mm]
O=C(/C=C/c1ccccc1)c1cccc(NC(=O)c2cc(-c3ccncc3)n[nH]2)c1	13.2
COc1cc(/C=C/C(=O)c2cccc(NC(=O)c3cc(-c4ccncc4)n[nH]3)c2)cc(OC)c1OC	11.6
O=C(/C=C/c1cccs1)c1cccc(NC(=O)c2cc(-c3ccncc3)n[nH]2)c1	13.5
O=C(/C=C/c1ccc(Cl)cc1Cl)c1cccc(NC(=O)c2cc(-c3ccncc3)n[nH]2)c1	15.5
NC(=O)c1cc(-c2ccncc2)n[nH]1	6
O=C(/C=C/c1ccccc1)c1ccccc1 [CHALCONE]	6.5
O=C(/C=C/c1cccc2ccccc12)c1cccc(NC(=O)c2cc(-c3ccncc3)n[nH]2)c1	15.4
COc1ccccc1/C=C/C(=O)c1cccc(NC(=O)c2cc(-c3ccncc3)n[nH]2)c1	9.7
COc1ccc(/C=C/C(=O)c2cccc(NC(=O)c3cc(-c4ccncc4)n[nH]3)c2)cc1	10.6
CN(C)c1ccc(/C=C/C(=O)c2cccc(NC(=O)c3cc(-c4ccncc4)n[nH]3)c2)cc1	12.4
O=C(/C=C/c1ccco1)c1cccc(NC(=O)c2cc(-c3ccncc3)n[nH]2)c1	13.2
CC(C)c1ccc(/C=C/C(=O)c2cccc(NC(=O)c3cc(-c4ccncc4)n[nH]3)c2)cc1	9.4
O=C(/C=C/c1ccc(Cl)cc1)c1cccc(NC(=O)c2cc(-c3ccncc3)n[nH]2)c1	15.3
Cc1ccc(/C=C/C(=O)c2cccc(NC(=O)c3cc(-c4ccncc4)n[nH]3)c2)cc1	7.9
O=C(/C=C/c1ccc([N+](=O)[O-])cc1)c1cccc(NC(=O)c2cc(-c3ccncc3)n[nH]2)c1	19.3
O=C(/C=C/c1ccccc1Cl)c1cccc(NC(=O)c2cc(-c3ccncc3)n[nH]2)c1	7.4

Tested on: Erythrocyte
Experiment: Antiinflammatory activity in human RBC at 10 to 500 uM by membrane stabilization method
Type: functional, cell-based

SMILES	Activity
O=C(/C=C/c1ccccc1)c1cccc(NC(=O)c2cc(-c3ccncc3)n[nH]2)c1	Active
COc1cc(/C=C/C(=O)c2cccc(NC(=O)c3cc(-c4ccncc4)n[nH]3)c2)cc(OC)c1OC	Active
O=C(/C=C/c1cccs1)c1cccc(NC(=O)c2cc(-c3ccncc3)n[nH]2)c1	Active
O=C(/C=C/c1ccc(Cl)cc1Cl)c1cccc(NC(=O)c2cc(-c3ccncc3)n[nH]2)c1	Active
NC(=O)c1cc(-c2ccncc2)n[nH]1	Active
O=C(/C=C/c1ccc(F)cc1)c1cccc(NC(=O)c2cc(-c3ccncc3)n[nH]2)c1	Active
O=C(/C=C/c1ccccc1)c1ccccc1 [CHALCONE]	Active
O=C(/C=C/c1cccc2ccccc12)c1cccc(NC(=O)c2cc(-c3ccncc3)n[nH]2)c1	Active
COc1ccccc1/C=C/C(=O)c1cccc(NC(=O)c2cc(-c3ccncc3)n[nH]2)c1	Active
COc1ccc(/C=C/C(=O)c2cccc(NC(=O)c3cc(-c4ccncc4)n[nH]3)c2)cc1	Active
CN(C)c1ccc(/C=C/C(=O)c2cccc(NC(=O)c3cc(-c4ccncc4)n[nH]3)c2)cc1	Active
O=C(/C=C/c1ccco1)c1cccc(NC(=O)c2cc(-c3ccncc3)n[nH]2)c1	Active
CC(C)c1ccc(/C=C/C(=O)c2cccc(NC(=O)c3cc(-c4ccncc4)n[nH]3)c2)cc1	Active
O=C(/C=C/c1ccc(Cl)cc1)c1cccc(NC(=O)c2cc(-c3ccncc3)n[nH]2)c1	Active
Cc1ccc(/C=C/C(=O)c2cccc(NC(=O)c3cc(-c4ccncc4)n[nH]3)c2)cc1	Active
O=C(/C=C/c1ccc([N+](=O)[O-])cc1)c1cccc(NC(=O)c2cc(-c3ccncc3)n[nH]2)c1	Active
O=C(/C=C/c1ccccc1Cl)c1cccc(NC(=O)c2cc(-c3ccncc3)n[nH]2)c1	Active
